The values below come from patent US9346761B2, “Arginine methyltransferase inhibitors and uses thereof” (Epizyme, Inc., priority 2013, dated 2016).

Where two headings read alike, the source gives them in different places.

The target of assay [1] is T1, Full-length human PRMT1 isoform 1 (Homo sapiens, UniProt Q99873).
T1 construct: GST-tagged PRMT1; made in house; host or cells: High Five insect cells (baculovirus, pFastBacI)
Description: PRMT1 biochemical assay (3H-SAM Flashplate, peptide substrate). The essentials: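 Tritiated methyl transfer from 3H-SAM onto biotinylated peptide, captured on streptavidin Flashplates and counted. Baculovirus-expressed GST-PRMT1 and compound were preincubated 30 min at room temperature in Bicine buffer pH 7.6. Cold SAM at 300 uM final ended the reaction.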

The test system of assay [2] is mono-methyl arginine in RKO cells. In words: RKO methylation assay, In Cell Western for mono-methyl arginine and DNA content. In kind it is cell-based. As to conditions: Homo sapiens.
The mark [3] stands for this setting: In Cell Western, RKO cells, 72 hours, percent activation of mono-methyl arginine signal, read-out: EC30.

T1 sequence (Q99873 with tags, fused parts or gaps): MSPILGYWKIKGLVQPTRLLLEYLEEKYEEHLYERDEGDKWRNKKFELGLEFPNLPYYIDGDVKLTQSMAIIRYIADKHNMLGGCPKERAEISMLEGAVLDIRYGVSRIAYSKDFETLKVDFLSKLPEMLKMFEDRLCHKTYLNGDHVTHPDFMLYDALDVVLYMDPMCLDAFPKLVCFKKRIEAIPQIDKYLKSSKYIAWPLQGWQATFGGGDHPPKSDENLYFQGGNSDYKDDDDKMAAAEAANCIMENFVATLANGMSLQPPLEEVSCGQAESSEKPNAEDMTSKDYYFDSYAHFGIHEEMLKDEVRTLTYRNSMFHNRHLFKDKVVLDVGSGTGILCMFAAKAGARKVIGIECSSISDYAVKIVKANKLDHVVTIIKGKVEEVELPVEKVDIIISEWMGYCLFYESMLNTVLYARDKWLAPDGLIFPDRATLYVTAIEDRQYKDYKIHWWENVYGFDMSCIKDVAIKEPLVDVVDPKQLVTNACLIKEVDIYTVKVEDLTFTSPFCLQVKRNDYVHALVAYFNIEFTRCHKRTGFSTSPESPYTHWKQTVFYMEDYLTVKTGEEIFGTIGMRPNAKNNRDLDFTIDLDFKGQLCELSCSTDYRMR

With `CNCCN(C)Cc1c[nH]nc1-c1ccccc1C(F)(F)F` [Compound 38], the IC50 in assay [1] was 1.01 to 3 µM. Besides, the EC30 in assay [2] (setting [3]) was > 12 µM.
For `CNCCN(C)Cc1cn(C2CCCC2)nc1-c1ccc(OC(C)C)cc1` [Compound 214], the concentration for half-maximal inhibition (IC50) in assay [1] was < 0.1 µM. Moreover, the EC30 in assay [2] (setting [3]) is > 12 µM.
Regarding `CNCCN(C)Cc1c[nH]nc1-c1ccc(OCCCOC)cc1` [Compound 209], the IC50 in assay [1] is < 0.1 µM. The EC30 in assay [2] (setting [3]) is < 3 µM.
For the molecule `CN(CCN)Cc1c[nH]nc1-c1ccc(Oc2cccc(F)c2)cc1` [Compound 205], the IC50 in assay [1] is < 0.1 µM. In addition, in assay [2] (setting [3]), the EC30 is < 3 µM.
Turning to `CN(CCN1CCC1)Cc1c[nH]nc1-c1ccc(C#N)cc1` [Compound 185], the IC50 in assay [1] was in the range of 1.01 to 3 µM. For the same molecule, the EC30 in assay [2] (setting [3]) is > 12 µM.
In assay [1], `CNCCN(C)Cc1cn(C(C)C)nc1-c1ccc(F)cc1` [Compound 15] showed an IC50 of 3.01 to 10 µM. For the same molecule, the EC30 in assay [2] (setting [3]) was > 12 µM.
In the same order, the values of `CN(CCN)Cc1c[nH]nc1-c1ccc2c(c1)N(C)C(=O)CO2` [Compound 196] are 0.101 to 1 µM and > 12 µM.
`CNCCN(C)Cc1c[nH]nc1-c1ccc(OCCCOC)c(Cl)c1` [Compound 228]: the IC50 in assay [1] is < 0.1 µM. Moreover, the EC30 in assay [2] (setting [3]) is < 3 µM.
Regarding `CCn1cc(CN(C)CCNC)c(-c2ccc(OC(C)C)cc2)n1` [Compound 213], the 50% inhibitory concentration (IC50) in assay [1] was < 0.1 µM. For the same molecule, the EC30 in assay [2] (setting [3]) was > 12 µM.
Turning to `CNCCN(C)Cc1cn(Cc2ccccn2)nc1-c1ccc(OC(C)C)cc1` [Compound 247], the IC50 in assay [1] fell in the range of 0.101 to 1 µM. In addition, the EC30 in assay [2] (setting [3]) lay within 3.01 to 12 µM.
`CN(CCN)Cc1c[nH]nc1-c1ccc(OCCO)cc1` [Compound 194]: the IC50 in assay [1] was < 0.1 µM. In addition, the EC30 in assay [2] (setting [3]) was > 12 µM.
Consider `CNCCN(C)Cc1c[nH]nc1-c1ccccc1OC` [Compound 23], for which, in assay [1], the IC50 lay within 0.101 to 1 µM. Also, the EC30 in assay [2] (setting [3]) was > 12 µM.
Take `CNCCN(C)Cc1cn(CC(=O)OC)nc1-c1ccc(OC(C)C)cc1` [Compound 248]: the IC50 in assay [1] is 0.101 to 1 µM. For the same molecule, the EC30 in assay [2] (setting [3]) was > 12 µM.
Turning to `CNCCN(C)Cc1cn[nH]c1-c1ccc(C#N)cc1` [Compound 17], in assay [1], the concentration for half-maximal inhibition (IC50) is < 0.1 µM. In addition, the EC30 in assay [2] (RKO, 72 h) was > 12 µM.
In turn, `CNCCN(C)Cc1cn(CCCC(O)CO)nc1-c1ccc(F)cc1` (stereo not shown) [Compound 30] registered an IC50 in assay [1] of 3.01 to 10 µM. Moreover, the EC30 in assay [2] (setting [3]) was > 12 µM.
`C=C(C)C(=O)Nc1cccc(-c2[nH]ncc2CN(C)CCNC)c1` [Compound 257] yielded an IC50 in assay [1] of 0.101 to 1 µM. Besides, the EC30 in assay [2] (setting [3]) was > 12 µM.
`CN(CCN)Cc1c[nH]nc1-c1ccc2c(c1)OCC(=O)N2C` [Compound 192] returned an IC50 in assay [1] of 0.101 to 1 µM. Moreover, the EC30 in assay [2] (setting [3]) is > 12 µM.
With `C=CC(=O)Nc1cccc(-c2[nH]ncc2CN(C)CCNC)c1` [Compound 258], in assay [1], the IC50 was < 0.1 µM. Also, in assay [2] (setting [3]), the EC30 is > 12 µM.
As to `CNCCN(C)Cc1c[nH]nc1-c1ccc(Oc2ccccc2)c(C#N)c1` [Compound 221], the IC50 in assay [1] was < 0.1 µM. Also, the EC30 in assay [2] (setting [3]) is < 3 µM.
In turn, `CNCCN(C)Cc1cn(CC(=O)O)nc1-c1ccc(OC(C)C)cc1` [Compound 250] registered an IC50 in assay [1] of 0.101 to 1 µM. The EC30 in assay [2] (RKO, 72 h) was > 12 µM.
In the case of `CNCCN(C)Cc1c[nH]nc1-c1ccc(C(F)(F)F)cc1` [Compound 174], in assay [1], the IC50 is < 0.1 µM. Further, the 30% effect concentration (EC30) in assay [2] (setting [3]) is < 3 µM.
The like results for `CCC(=O)N1CCN(c2ccc(-c3n[nH]cc3CN(C)CCN)cc2)CC1` [Compound 189] were, in that order, 0.101 to 1 µM and > 12 µM.
In assay [1], `CC(C)CC(=O)N1CCN(c2ccc(-c3n[nH]cc3CN(C)CCN)cc2)CC1` [Compound 180] came in with an IC50 of 0.101 to 1 µM. For the same molecule, the EC30 in assay [2] (setting [3]) is > 12 µM.

In general, IC50 refers to the concentration that gives 50% inhibition. Read a high IC50 as weaker potency in that assay. What is called EC30 is the concentration at which the effect reaches the 30% level.
